Laboratory results reported in publication PMC3781598 (Pharmaceutical research, 2013).
Entries after “also recorded” stand apart in the source; their conditions may differ. Read-outs that look alike come from different tables or passages of the source.

How the values were obtained:
human CYP2A6 [1] = biological target: T1, human CYP2A6 (Homo sapiens, UniProt P11509); assay: Spectral ligand binding assay; conditions: for Kd / Kd 2A6: ≥ = minimal Kd value; for Spectral shift type 2A6: UV/Vis difference spectra
T1 sequence (P11509 with tags, fused parts or gaps limits assumed): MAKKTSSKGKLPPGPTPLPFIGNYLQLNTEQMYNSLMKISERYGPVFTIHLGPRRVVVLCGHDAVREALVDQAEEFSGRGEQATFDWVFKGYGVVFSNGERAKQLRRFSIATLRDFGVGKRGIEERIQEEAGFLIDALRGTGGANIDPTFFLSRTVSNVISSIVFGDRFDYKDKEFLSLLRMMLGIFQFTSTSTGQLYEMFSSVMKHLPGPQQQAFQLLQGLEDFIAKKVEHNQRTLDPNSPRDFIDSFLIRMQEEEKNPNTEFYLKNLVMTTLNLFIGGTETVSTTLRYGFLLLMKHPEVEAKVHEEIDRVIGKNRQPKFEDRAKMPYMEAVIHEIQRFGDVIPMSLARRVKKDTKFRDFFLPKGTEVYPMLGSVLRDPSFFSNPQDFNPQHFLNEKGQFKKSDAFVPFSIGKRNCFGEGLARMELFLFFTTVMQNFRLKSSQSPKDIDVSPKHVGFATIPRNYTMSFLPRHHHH

CYP2A6 / CYP2A13 [2] = assay: Spectral ligand binding assay; design: species or system human; conditions: human, Selectivity Kd (2A6)/ Kd (2A13), ratio of the CYP2A6 value to the CYP2A13 value
human CYP2A13 [3] = biological target: T2, human CYP2A13 (Homo sapiens, UniProt Q16696); assay: Spectral ligand binding assay; conditions: for Kd: Kd 2A13, spectral titration, ≥ = minimal Kd value; for Spectral shift type 2A13: UV/Vis difference spectra
T2 sequence (Q16696 25-494): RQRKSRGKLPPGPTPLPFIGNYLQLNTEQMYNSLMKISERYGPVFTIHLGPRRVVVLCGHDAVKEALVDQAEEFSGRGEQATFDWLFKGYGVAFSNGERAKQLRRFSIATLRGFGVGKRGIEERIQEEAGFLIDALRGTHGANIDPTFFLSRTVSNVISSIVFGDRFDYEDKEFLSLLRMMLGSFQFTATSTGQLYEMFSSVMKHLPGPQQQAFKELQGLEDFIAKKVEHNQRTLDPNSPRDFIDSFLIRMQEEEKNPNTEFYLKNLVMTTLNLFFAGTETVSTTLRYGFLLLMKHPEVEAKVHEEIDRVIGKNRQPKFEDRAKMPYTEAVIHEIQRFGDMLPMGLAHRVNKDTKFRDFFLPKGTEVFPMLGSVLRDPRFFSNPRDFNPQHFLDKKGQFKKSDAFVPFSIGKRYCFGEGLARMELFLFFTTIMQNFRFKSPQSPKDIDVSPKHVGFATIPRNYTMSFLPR

human CYP2A13 [4] = assay: Spectral ligand binding assay; conditions: ratio of the CYP2A6 value to the CYP2A13 value
human CYP2A6 [5] = biological target: T1, human CYP2A6; assay: Coumarin metabolism assay
CYP2A6 / CYP2A13 [6] = assay: Coumarin metabolism assay; conditions: human
human CYP2A13 [7] = biological target: T3, human CYP2A13 (Homo sapiens, UniProt Q16696); assay: Coumarin metabolism assay; conditions: for α (mixed inhibition) 2A13: mixed model inhibition
T3 sequence (Q16696 with tags, fused parts or gaps limits assumed): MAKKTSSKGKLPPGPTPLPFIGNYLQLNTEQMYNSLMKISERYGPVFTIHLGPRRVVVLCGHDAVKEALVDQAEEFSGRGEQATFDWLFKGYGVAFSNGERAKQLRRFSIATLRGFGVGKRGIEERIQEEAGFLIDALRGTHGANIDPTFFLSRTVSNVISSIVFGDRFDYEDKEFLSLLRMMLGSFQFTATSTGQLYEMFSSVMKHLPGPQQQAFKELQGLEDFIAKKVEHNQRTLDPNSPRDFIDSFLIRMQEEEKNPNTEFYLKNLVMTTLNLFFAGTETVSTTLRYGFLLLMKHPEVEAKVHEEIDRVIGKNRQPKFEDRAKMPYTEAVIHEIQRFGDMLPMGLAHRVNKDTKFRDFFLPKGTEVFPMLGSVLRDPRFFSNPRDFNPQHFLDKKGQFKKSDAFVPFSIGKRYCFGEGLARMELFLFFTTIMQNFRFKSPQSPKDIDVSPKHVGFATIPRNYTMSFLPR

[8] = pH 7.4, probe coumarin (7-hydroxylation), Selectivity Ki (2A6)/ Ki (2A13), ratio of the CYP2A6 value to the CYP2A13 value
[9] = read-out: Kd 2A6, spectral titration
[10] = read-out: Ki 2A6, coumarin substrate
[11] = read-out: Ki 2A13, coumarin substrate

| Compound | Kd (human CYP2A6 [1]; Kd 2A6, spectral titration) [µM] | Spectral shift type 2A6 (human CYP2A6 [1]) | selectivity ratio (CYP2A6 / CYP2A13 [2]) | Kd (human CYP2A13 [3]) [µM] | Spectral shift type 2A13 (human CYP2A13 [3]) | Selectivity Kd (2A6)/ Kd (2A13) (human CYP2A13 [4]) | Ki (human CYP2A6 [5]) [µM] | selectivity ratio at 10 min (CYP2A6 / CYP2A13 [6]; [8]) | Ki (human CYP2A13 [7]) [µM] | Kd 2A6 (human CYP2A6 [1]; spectral titration) | Kd (human CYP2A6 [1]; [9]) [µM] | Ki (human CYP2A6 [5]; [10]) [µM] | Ki (human CYP2A13 [7]; [11]) [µM] | Mode of inhibition 2A13 (human CYP2A13 [7]; coumarin substrate) | α (mixed inhibition) 2A13 (human CYP2A13 [7]; coumarin substrate) | selectivity ratio at 10 min (CYP2A6 / CYP2A13 [6]; pH 7.4) | Mode of inhibition 2A6 (human CYP2A6 [5]; coumarin substrate) | α (mixed inhibition) 2A6 (human CYP2A6 [5]; coumarin substrate, mixed model inhibition) |
| --- | --- | --- | --- | --- | --- | --- | --- | --- | --- | --- | --- | --- | --- | --- | --- | --- | --- | --- |
| Cc1cccc(Cl)c1CN1CCOCC1 [Compound 9, 4-(2-chloro-6-methylbenzyl)morpholine] | 515 | I | > 400 | 1.1 | I | 468 | 296 | 15 | 19.7 ± 1.2 |  |  |  |  |  |  |  |  |  |
| Fc1ccccc1CN1CCOCC1 [Compound 2, 4-(2-fluorobenzyl)morpholine] |  |  |  |  | I |  | ≥ 1000 | ≥ 2.6 | 379 | no spectral shift; also recorded: No ^** Spectral Shift |  |  |  |  |  |  |  |  |
| Cc1ccccc1CN1CCOCC1 [Compound 5, 4-(2-methylbenzyl)morpholine] |  |  |  | 18.5 | I |  | ≥ 1000 | ≥ 14.9 | 66.9 | No ^** Spectral Shift |  |  |  |  |  |  |  |  |
| c1csc(CN2CCOCC2)c1 [Compound 19, 4-(thiophen-2-ylmethyl)morpholine] | ≥ 464 | I | ≥ 15.1 | 30.8 | I |  | 270 | 2.1 | 131 |  |  |  |  |  |  |  |  |  |
| Clc1ccccc1CCN1CCOCC1 [Compound 24, 4-(2-chlorophenethyl)morpholine] |  |  |  |  |  |  |  |  |  |  | ≥ 604 | ≥ 1000 | 604 |  |  |  |  |  |
| CC1CN(Cc2cccc(Cl)c2Cl)CC(C)O1 (stereo not shown) [Compound 14, 4-(2,3-dichlorobenzyl)-2,6-dimethylmorpholine] | ≥ 462 | I | ≥ 12.5 | 37 | I |  | ≥ 1000 | ≥ 2.6 | 646 |  |  |  |  | mixed inhibition | 19.6 |  |  |  |
| Brc1ccccc1CN1CCOCC1 [Compound 4, 4-(2-bromobenzyl)morpholine] |  |  |  | 6.3 | I |  | ≥ 1000 |  | 17.6 ± 3.1 | No ^** Spectral Shift |  |  |  |  |  | ≥ 56.8 |  |  |
| Clc1cccc(Cl)c1CN1CCOCC1 [Compound 8, 4-(2,6-dichlorobenzyl)morpholine] | ≥ 522 | I | > 400 | 1.3 | I |  | 237 | 13.7 | 18.1 |  |  |  |  |  |  |  |  |  |
| Benzylmorpholine [Compound 1] |  | I [drawing 2] II |  |  |  |  |  |  |  |  | ≥ 300 | 675 | 477 |  |  |  | mixed inhibition | 3.4 |
| Clc1cccc(Cl)c1Cn1ccnc1 [Compound 17, 1-(2,6-dichlorobenzyl)-1H-imidazole] | 0.9 |  | ≥ 9 | < 0.1 |  |  | 0.9 | 0.4 | 2.1 |  |  |  |  | mixed inhibition; also recorded: mixed inhibitors | 2.0 |  | purely competitive inhibitors |  |
